Like-named read-outs stand apart in the source and are kept apart here. Marks after values point to notes of the source that are not given here.
Columns and labels:
[1] = tested on: T. b. rhodesiense KETRI 243; test: In vitro trypanocidal activity, bloodforms in HMI-18 medium, Coulter counts; assay type: cell-based, Trypanosoma brucei rhodesiense; conditions: 48 h exposure
Description: (§1) The compounds were tested against trypanosome isolates grown as blood forms in HMI-18 medium containing 20% horse serum in 24 well microplates at 37° C. in 5% CO2. Wells were inoculated with 1×10^5 trypanosomes. […] One-half the volume was replaced daily. Cell counts were made daily with a Coulter Counter, Model Z1 (Beckman Coulter, Miami, Fla., USA). Cells were diluted with Isoton I buffer (Beckman Coulter) and the aperture was standardized at 5.14 μm. Background checks were performed daily on 1:10 dilutions of medium. Counts, normalization, and coincident counts were accounted for by the standardized Coulter analysis program. Occasionally, hemocytometer counts were performed as a check on the validity of the Coulter program. IC50 values were determined after 48 h from semi-log plots and the values are the result of duplicate determinations. Initially a broad concentration curve was used and then a close concentration curve from which IC50 values were determined. Assays were done in duplicate and each point was the average of the two. Control cells grew to 5×10^6/ml.
(§2) Coulter counts were made daily and IC50 values determined after 48 hours exposure.

[2] = tested on: T. b. brucei Lab 110 EATRO; test: as above; assay type: cell-based, Trypanosoma brucei brucei; conditions: 48 h exposure, bloodforms, read-out: Lab 100 EATRO IC50
Description: as §1, §2

poly(dA-dT) = test: Thermal denaturation study, DNA binding affinity (ΔTm); conditions: 1:5 compound to base pair ratio;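 also: shift in the midpoint temperature of the thermal melting curve of poly(dA-dT), each value the mean of two or more independent determinations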
Description: (§3) The binding affinity was measured by determining the change in the midpoint (Tm) of the thermal denaturation curves of calf thymus DNA as well as poly(dA-dT) at a 1:5 compound to base pair ratio.

calf thymus DNA = test: as above; conditions: 1:5 compound to base pair ratio;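 also: shift in midpoint melting temperature of calf thymus DNA thermal denaturation curves caused by compound binding, values averaged over at least two determinations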
Description: as §3

[3] = tested on: T. b. brucei Lab 110 EATRO; test: In vivo efficacy in infected mice; parameters: species or system Trypanosoma brucei brucei
Description: Female Swiss-Webster mice (weight, 20 g) were infected (intraperitoneally) with 2.5×10^5 trypanosomes from rat blood, and the infection was allowed to develop for 24 h before drug treatment was begun. Groups of three mice each were injected (intraperitoneally) with each drug concentration. All of the experiments included a group of untreated controls. […] Parasitemia of animals dying of infection averaged 0.5-1.0×10^9/mL of blood. These infections are very predictable and daily counts were not done because of the labor involved. […] Animals were monitored weekly for parasites in tail vein blood smears. Mice were considered cured if they survived more than 30 days after the death of the last control with no parasites in tail vein blood smears. MSD (mean survival in days) was also recorded for each group. It is the average time of survival of the animals in the group, exclusive of cured animals.
Mice were infected with 250,000 parasites and dosing commenced 24 h. post infection. Mice were separated into groups of three and given single i.p doses for 3 days unless otherwise noted. Infected untreated controls were used for each experiment. Mice were considered cured if surviving more than 30 days beyond death of controls without parasites in tail vein blood smears. MSD, mean survival in days, exclusive of cured animals.

[4] = Trypanosoma brucei, RHODESIENSE
[5] = mice, 1 mg/kg/day i.p. for 3 days
[6] = mice, 5 mg/kg/day i.p. for 3 days

Row | SMILES | IC50 [1] | IC50 [2] | DNA Binding Δ Tm Poly (dA-dT) (poly(dA-dT)) | DNA Binding Δ Tm Calf thymus (calf thymus DNA) | other results
1 | C(=C1CCCN(c2ccc(C3=NCCN3)cc2)C1)c1ccc(C2=NCCN2)cc1.Cl.Cl (mixture of isomers) [3SF] | 84 nM | 71 nM | 15.0 °C | 12.0 °C | 
2 | Cl.Cl.c1cc(C2=NCCN2)ccc1CC1CCCN(c2ccc(C3=NCCN3)cc2)C1 (stereo not drawn) [4CF] | 85 nM | 86 nM | 14.1 °C | 9.9 °C | 
3 | Cl.Cl.N=C(N)c1ccc(N2CCCN(c3ccc(C(=N)N)cc3)CC2)cc1 [7AM] | 2.7 nM | 2.15 nM | 23.1 °C | 15.0 °C | 
4 | O=C(Nc1ccc(C2=NCCN2)cc1)C1CC1C(=O)Nc1ccc(C2=NCCN2)cc1 (stereo not drawn) [8IM] | 440 nM | > 1000 nM | 9.6 °C | 6.0 °C | 
5 | Cl.Cl.N=C(NC1CC1)c1ccc(N2CCN(c3ccc(C(=N)NC4CC4)cc3)CC2)cc1 [63C, N,N′-Dicyclopropyl 4,4′-(1,4-piperazinediyl)bisbenzenecarboxidamide] |  |  | 23.9 °C | 14.5 °C | 
6 | CCCNC(=N)c1ccc(N2CCN(c3ccc(C(=N)NCCC)cc3)CC2)cc1.Cl.Cl [63N, N,N′-Dipropyl 4,4′-(1,4-piperazinediyl)bisbenzenecarboxidamide] |  |  | 26.0 °C | 17.0 °C | IC50 [1, 4]: 32.5 nM; IC50 ([2]; Trypanosoma brucei): 35 nM
7 | Cl.Cl.N=C(NC1CC1)c1ccc(N2CCCN(c3ccc(C(=N)NC4CC4)cc3)CC2)cc1 [73C] | 810 nM | 870 nM | 23.6 °C | 15.3 °C | 
8 | CCCCNC(=N)c1ccc(N2CCCN(c3ccc(C(=N)NCCCC)cc3)CC2)cc1.Cl.Cl [74N] | 79 nM | 180 nM | 13.3 °C | 11.8 °C | 
9 | Cl.Cl.c1cc(N2CCN(c3ccc(C4=NCCCN4)cc3)CC2)ccc1C1=NCCCN1 [632N] |  |  | 17.9 °C | 12.2 °C | 
10 | Cl.Cl.c1cc(N2CCCN(c3ccc(C4=NCCCN4)cc3)CC2)ccc1C1=NCCCN1 [732N] |  |  | 21.3 °C | 15.5 °C | 
11 | N=C(N)c1ccc(OCCCCCOc2ccc(C(=N)N)cc2)cc1 [Pentamidine, reference compound] |  |  | 20.6 °C | 11.1 °C | # Cured/#Treated (%) ([3]; mice, 1, 2.5, 5, 10, 25 mg/kg/day i.p. for 3 days (all doses cured)): 5/5*; MSD ([3]; mice, 1, 2.5, 5, 10, 25 mg/kg/day i.p. for 3 days (all doses)): >30 days; IC50 [1, 4]: 2.32 nM
12 | N#Cc1ccc(N2CCN(c3ccc(C#N)cc3)CC2)cc1 [compound 0101] | 1050 nM | 2890 nM | −0.3 °C | 0.1 °C | 
13 | O=Cc1ccc(N2CCN(c3ccc(C=O)cc3)CC2)cc1 [compound 0107] |  |  | 0.0 °C | −0.2 °C | 
14 | CN1CCN(C)C1c1ccc(N2CCN(c3ccc(C4N(C)CCN4C)cc3)CC2)cc1 [compound 0108] | 2320 nM | 6800 nM | 1.8 °C | 2.4 °C | 
15 | c1ccc(N2CCN(c3ccccc3)C2c2ccc(N3CCN(c4ccc(C5N(c6ccccc6)CCN5c5ccccc5)cc4)CC3)cc2)cc1 [compound 0109] | 335 nM | 120 nM | 0.0 °C | −1.2 °C | 
16 | c1cc(N2CCN(c3ccc(C4OCCO4)cc3)CC2)ccc1C1OCCO1 [compound 0111] | 2300 nM | 5800 nM | 0.1 °C | −1.2 °C | 
17 | CN=C(N)c1ccc(N2CCN(c3ccc(C(N)=NC)cc3)CC2)cc1 [compound 0112, N,N′-Dimethyl 4,4′-(1,4-piperazinediyl)bisbenzenecarboxidamide] | 33 nM | 205 nM | 22.2 °C | 15.2 °C | 

Row | SMILES | IC50 [1] | IC50 [2] | DNA Binding Δ Tm Poly (dA-dT) (poly(dA-dT)) | DNA Binding Δ Tm Calf thymus (calf thymus DNA) | other results
18 | c1ccc2[nH]c(-c3ccc(N4CCN(c5ccc(-c6nc7ccccc7[nH]6)cc5)CC4)cc3)nc2c1 [compound 0115, 1,4-bis[4-(1H-benzymidazol-2-yl)phenyl]piperazine] |  |  | 2.0 °C | 0.1 °C | IC50 [1, 4]: 5800 nM; IC50 ([2]; Trypanosoma brucei): 1150 nM
19 | C(=NNc1ccccc1)c1ccc(N2CCN(c3ccc(C=NNc4ccccc4)cc3)CC2)cc1 [compound 0116] | 1870 nM | 1740 nM | 0.0 °C | −0.2 °C | 
20 | CCOC(=O)c1ccc(N2CCN(c3ccc(C(=O)OCC)cc3)CC2)cc1 [compound 0118] | 350 nM | 340 nM | 0.0 °C | 0.6 °C | 
21 | O=[N+]([O-])c1ccc(N2CCN(c3ccc([N+](=O)[O-])cc3)CC2)cc1 [compound 0119] | 250 nM | 137 nM | 0.0 °C | 0.1 °C | 
22 | CC(=O)c1ccc(N2CCN(c3ccc(C(C)=O)cc3)CC2)cc1 [compound 0123] | 1550 nM | 2350 nM | 0.0 °C | 0.1 °C | 
23 | Cl.Cl.c1cc(N2CCN(c3ccc(C4=NCCN4)cc3)CC2)ccc1C1=NCCN1 [compound 0126] | 6.5 nM | 16 nM | 19.4 °C | 15.0 °C | 
24 | CCCCCNC(=N)c1ccc(N2CCN(c3ccc(C(=N)NCCCCC)cc3)CC2)cc1.Cl.Cl [compound 0127] |  | 3 nM | 22.5 °C | 16.9 °C | 
25 | CCCCCCCCCNC(=N)c1ccc(N2CCN(c3ccc(C(=N)NCCCCCCCCC)cc3)CC2)cc1.Cl.Cl [compound 0132] | 210 nM | 100 nM | 2.7 °C | 1.3 °C | 
26 | CCCCCCCNC(=N)c1ccc(N2CCN(c3ccc(C(=N)NCCCCCCC)cc3)CC2)cc1.Cl.Cl [compound 0133] | 57 nM | 100 nM | 8.5 °C | 8.7 °C | 
27 | Cl.Cl.N=C(NC1CCCCCCC1)c1ccc(N2CCN(c3ccc(C(=N)NC4CCCCCCC4)cc3)CC2)cc1 [compound 0134] |  | 2.3 nM | 15.7 °C | 12.6 °C | 
28 | CC(C)CCNC(=N)c1ccc(N2CCN(c3ccc(C(=N)NCCC(C)C)cc3)CC2)cc1.Cl.Cl [compound 0135] | 61 nM | 72 nM | 21.8 °C | 15.3 °C | 
29 | N=C(NO)c1ccc(NC(=O)c2cccc(C(=O)Nc3ccc(C(=N)NO)cc3)c2)cc1 [compound 0323] |  |  | 0.1 °C | 0.6 °C | 
30 | N=C(NO)c1ccc(NC(=O)c2ccc(C(=O)Nc3ccc(C(=N)NO)cc3)cc2)cc1 [compound 0333] |  |  | 0.0 °C | 0.6 °C | 
31 | N=C(NO)c1ccc(C(=O)Nc2cccc(NC(=O)c3ccc(C(=N)NO)cc3)c2)cc1 [compound 0343] |  |  | 0.1 °C | −0.3 °C | 
32 | N=C(NO)c1ccc(C(=O)Nc2ccc(NC(=O)c3ccc(C(=N)NO)cc3)cc2)cc1 [compound 0353] |  |  | 0.1 °C | 0.4 °C | 
33 | N=C(N)c1ccc(OCc2cccc(COc3ccc(C(=N)N)cc3)c2)cc1 [compound 0512] | 1.5 nM | 0.74 nM |  | 14.0 °C | # Cured/#Treated (%) [3, 5]: 0/3; MSD [3, 5]: 8 days; # Cured/#Treated (%) [3, 6]: 0/3; MSD [3, 6]: 18 days; MSD ([3]; mice, 10 mg/kg/day i.p. for 3 days): >30 days; MSD ([3]; mice, 15 mg/kg/day i.p. for 3 days): >30 days

From patent publication US20080139534A1, “Bisbenzamidines and bisbenzamidoximes for the treatment of human African trypanosomiasis” (XAVIER UNIVERSITY OF LOUISIANA, priority 2006, published 2008)
